Experimental data: patent publication US20200109126A1 (priority 2017, published 2020)
pKi: −log10 of the molar value. “Also recorded” adds a separate entry of the source.

Experiments:
[1] = molecular target: T1, μOR (Homo sapiens, UniProt P35372); test: β-arrestin recruitment at μOR without GRK2; assay type: cell-based
[2] = molecular target: T2, κOR (Homo sapiens, UniProt P41145); test: Gi/o Glosensor assay at κOR; assay type: cell-based
T2 construct: NIMH Psychoactive Drug Screening Program (PDSP)
T2 sequence (P41145 whole entry): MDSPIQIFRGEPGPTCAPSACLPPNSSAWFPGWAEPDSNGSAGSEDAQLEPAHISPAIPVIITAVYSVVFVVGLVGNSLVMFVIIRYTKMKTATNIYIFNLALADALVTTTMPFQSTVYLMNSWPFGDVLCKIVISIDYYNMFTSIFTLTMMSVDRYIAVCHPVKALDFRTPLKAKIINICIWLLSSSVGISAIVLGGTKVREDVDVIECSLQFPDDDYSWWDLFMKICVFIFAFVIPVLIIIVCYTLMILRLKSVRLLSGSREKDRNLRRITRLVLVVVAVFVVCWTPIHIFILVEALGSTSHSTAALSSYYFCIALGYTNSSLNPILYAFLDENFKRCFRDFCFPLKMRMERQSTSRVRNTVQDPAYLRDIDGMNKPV

[3] = molecular target: T1, μOR; test: β-arrestin recruitment at μOR with GRK2 co-expression; assay type: cell-based
[4] = tested on: C57BL/6J mice; test: Conditioned place preference; conditions: mouse, in vivo
Protocol: On day 1 (preconditioning day), mice were placed in the central chamber and allowed to explore freely for 30 minutes. Time spent in each compartment was used to estimate baseline chamber preferences and mice showing specific chamber bias more than 70% were not studied further. On days 2-9 (conditioning days) mice were injected with either vehicle or drug and paired with either the white mesh or the black rod chambers. All mice received vehicle on days 2, 4, 6, 8 and drug on days 3, 5, 7, 9. On day 10 (test day), mice were again placed in the central chamber as on day 1 and allowed to explore freely for 30 minutes. Time spent in each chamber was expressed as percentage preference.

[5] = tested on: C57BL/6J mice; test: Mouse whole body plethysmography (respiration); conditions: equianalgesic doses of PZM21, TRV130 and morphine (40 mg/kg, […], 10 mg/kg)
[6] = molecular target: T3, nociceptin receptor (Homo sapiens, UniProt P41146); test: Gi/o Glosensor assay at nociceptin receptor; assay type: cell-based; conditions: ND = not detectable
T3 construct: NIMH Psychoactive Drug Screening Program (PDSP)
T3 sequence (P41146 whole entry): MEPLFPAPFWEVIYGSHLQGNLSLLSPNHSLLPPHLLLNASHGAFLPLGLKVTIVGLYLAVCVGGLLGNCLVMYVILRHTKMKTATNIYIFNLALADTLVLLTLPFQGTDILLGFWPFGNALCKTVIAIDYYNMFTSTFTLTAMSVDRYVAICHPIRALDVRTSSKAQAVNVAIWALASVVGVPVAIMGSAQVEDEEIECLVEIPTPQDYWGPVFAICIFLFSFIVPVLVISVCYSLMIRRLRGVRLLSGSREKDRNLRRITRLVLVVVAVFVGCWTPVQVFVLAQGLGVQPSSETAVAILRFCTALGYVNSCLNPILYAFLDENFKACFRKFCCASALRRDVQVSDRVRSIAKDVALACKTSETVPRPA

[7] = molecular target: T2, κOR; test: Radioligand binding at κOR (PDSP)
[8] = molecular target: T1, μOR; test: cell-based; assay type: cell-based
[9] = molecular target: T1, μOR; test: β-arrestin2 recruitment, PathHunter assay; assay type: cell-based
[10] = molecular target: hKOR (Homo sapiens, UniProt P41145); test: Receptor binding with [3H]diprenorphine at hKOR; conditions: ± SD (two experiments) or SEM; (n) experiments; read-out: hKOR [3H]dyprenorphine Ki
Sequence of hKOR (P41145 whole entry): as the sequence (P41145 whole entry) above

[11] = molecular target: hMOR (Homo sapiens, UniProt P35372); test: Receptor binding with [3H]diprenorphine at hMOR; conditions: ± SD (two experiments) or SEM; (n) experiments; read-out: hMOR [3H]dyprenorphine Ki
Sequence of hMOR (P35372 whole entry): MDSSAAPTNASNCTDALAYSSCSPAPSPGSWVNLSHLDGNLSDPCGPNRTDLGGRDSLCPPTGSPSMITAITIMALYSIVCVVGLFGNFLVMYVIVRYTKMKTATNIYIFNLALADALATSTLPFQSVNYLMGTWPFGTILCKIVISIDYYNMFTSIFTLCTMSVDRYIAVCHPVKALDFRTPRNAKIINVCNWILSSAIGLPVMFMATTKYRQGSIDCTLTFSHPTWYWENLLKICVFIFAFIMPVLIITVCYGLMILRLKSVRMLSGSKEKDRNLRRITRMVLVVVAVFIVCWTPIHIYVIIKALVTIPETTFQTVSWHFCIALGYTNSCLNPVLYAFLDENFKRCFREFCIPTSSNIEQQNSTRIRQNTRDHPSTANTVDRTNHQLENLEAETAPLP

[12] = molecular target: T4, hMOR + Gqi5 (Homo sapiens, UniProt P35372); test: IP accumulation assay, hMOR + Gqi5; assay type: cell-based; conditions: % morphine
T4 construct: expressed in transfected cells
T4 sequence (P35372 whole entry): as above

[13] = molecular target: humanDOR (Homo sapiens, UniProt P41143); test: Receptor binding with [3H]diprenorphine at human DOR; conditions: ± SD (two experiments) or SEM; (n) experiments; read-out: humanDOR [3H]dyprenorphine Ki
Sequence of humanDOR (P41143 whole entry): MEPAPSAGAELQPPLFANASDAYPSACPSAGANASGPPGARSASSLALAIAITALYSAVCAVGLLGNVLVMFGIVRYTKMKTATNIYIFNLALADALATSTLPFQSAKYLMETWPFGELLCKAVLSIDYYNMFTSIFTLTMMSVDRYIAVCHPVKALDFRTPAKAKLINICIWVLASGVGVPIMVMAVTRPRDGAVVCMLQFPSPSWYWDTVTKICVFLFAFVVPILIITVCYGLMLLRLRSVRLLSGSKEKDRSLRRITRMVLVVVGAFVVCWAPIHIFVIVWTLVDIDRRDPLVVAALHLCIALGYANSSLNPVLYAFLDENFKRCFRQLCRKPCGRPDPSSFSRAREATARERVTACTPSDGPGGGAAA

[14] = molecular target: T1, μOR; test: BRET-based cAMP accumulation assay (SAR of PZM21-29); assay type: cell-based; conditions: for loss of potency: compared to parent reference compound (PZM22)
[15] = molecular target: T5, μOR:N127C (Homo sapiens, UniProt P35372, N129C); test: Radioligand depletion assay, irreversible binding at μOR:N127C; conditions: wash-resistant inhibition of radioligand binding
T5 construct: expressed in transfected cells; host or cells: HEK 293
T5 sequence (P35372 whole entry N129C): as the sequence (P35372 whole entry) above, with N129C counted along it

T1 sequence (P35372 whole entry): as the sequence (P35372 whole entry) above

Molecule: COc1ccsc1CNCC[C@@]1(c2ccccn2)CCOC2(CCCC2)C1 [TRV130, reference compound]
- β-arrestin2 recruitment in the absence of GRK2 (in words) [1]: no β-arrestin2 recruitment
- KOR agonist activity (in words) [2]: activates κOR with similar potency to morphine
- arrestin recruitment with over-expressed GRK2 (in words) [3]: arrestin recruitment
- conditioned place preference [4]: not significant relative to vehicle
- respiration frequency [5]: significantly depresses respiration at 15 minutes

Molecule: C[C@H](Cc1ccsc1)NC(=O)NC[C@@H](Cc1ccccc1)N(C)C [compound 12]
- EC50 [6]: 1400 nM
- Ki ([7]; Ki (nM) κOR): 464 nM
- Ki ([7]; κOR Ki (μM), analogs, full dose-response): 460 nM
- Gi/o activation, μOR agonist activity (in words) [8]: robust μOR agonist activity; also recorded: strongly activated Gi/o
- β-arrestin2 recruitment (in words) [9]: undetectable; also recorded: low levels

Molecule: Cc1cc(O)cc(C)c1C[C@@H](CNC(=O)N[C@H](C)Cc1ccsc1)N(C)C [BD 131LR, 1-((S)-2-(dimethylamino)-3-(4-hydroxy-2,6-dimethylphenyl)propyl)-3-((R)-1-(thiophen-3-yl)propan-2-yl)urea]
- pKi [10]: 7.92
- pKi [11]: 8.39
- hMOR + Gqi5 IP accumulation assay efficacy a @10 μM ([12]; @10 μM): @10 μM a: 10%
- pKi [13]: 7.77

Molecule: (S)-1-(2-(dimethylamino)-3-(4-hydroxy-2,6-dimethylphenyl)propyl)-3-(2-(thiophen-3-yl)ethyl)urea [DD 34L]
- pKi [10]: 7.57
- pKi [11]: 8.21
- hMOR + Gqi5 IP accumulation assay efficacy a [12]: a: <5%
- pKi [13]: 7.29

Molecule: CN(C=O)[C@H](CNC(=O)NCCc1ccccc1)Cc1ccc(O)cc1 [PZM28, (S)—N-(1-(4-Hydroxyphenyl)-3-(3-phenethylureido)propan-2-yl)-N-methylformamide]
- loss of potency [14]: 1000 fold

Molecule: Cc1cc(O)cc(C)c1C[C@@H](CNC(=O)N[C@@H](C)Cc1ccsc1)N(C)C [BD 131LS, 1-((S)-2-(dimethylamino)-3-(4-hydroxy-2,6-dimethylphenyl)propyl)-3-((S)-1-(thiophen-3-yl)propan-2-yl)urea]
- pKi [10]: 8.19
- pKi [11]: 7.92
- hMOR + Gqi5 IP accumulation assay efficacy a [12]: a: <5%
- pKi [13]: 7.07

Molecule: CN(C)[C@H](CNC(=O)NCCc1cn(CCSSCCN=[N+]=[N-])nn1)Cc1ccc(O)cc1 [PZM29, (S)-1-(2-(1-(2-((2-Azidoethyl)disulfanyl)ethyl)-1H-1,2,3-triazol-4-yl)ethyl)-3-(2-(dimethylamino)-3-(4-hydroxyphenyl)propyl)urea x CF3COOH]
- irreversible binding to μOR:N127C [15]: binds to the μOR:N127C variant irreversibly; also recorded: binds irreversibly to this mutant
- efficacy and potency as agonist (in words) [14]: retains its efficacy as an agonist

Molecule: CN(CC1CC1)[C@H](CNC(=O)NCCc1ccccc1)Cc1ccc(O)cc1 [PZM27, (S)-1-(2-((Cyclopropylmethyl)(methyl)amino)-3-(4-hydroxyphenyl)propyl)-3-phenethylurea x CF3COOH]
- efficacy and potency as agonist (in words) [14]: decreased efficacy
- loss of potency [14]: 30 fold
